Laboratory results: US20260070906A1, “IMIDAZO[4,5-C]PYRIDINE COMPOUNDS FOR THE TREATMENT OF CANCER” (Hoffmann-La Roche Inc., priority 2023, published 2026)

Assays:
human TLR8 = target: T1, human TLR8 (Homo sapiens, UniProt Q9NR97); experiment: HEK293-Blue-hTLR8 cells assay (NF-κB SEAP reporter); type: cell-based; details: 20 hours incubation, agonism
T1 construct: host or cells: HEK293-Blue-hTLR8 (HEK293)
T1 sequence (Q9NR97 27-1041): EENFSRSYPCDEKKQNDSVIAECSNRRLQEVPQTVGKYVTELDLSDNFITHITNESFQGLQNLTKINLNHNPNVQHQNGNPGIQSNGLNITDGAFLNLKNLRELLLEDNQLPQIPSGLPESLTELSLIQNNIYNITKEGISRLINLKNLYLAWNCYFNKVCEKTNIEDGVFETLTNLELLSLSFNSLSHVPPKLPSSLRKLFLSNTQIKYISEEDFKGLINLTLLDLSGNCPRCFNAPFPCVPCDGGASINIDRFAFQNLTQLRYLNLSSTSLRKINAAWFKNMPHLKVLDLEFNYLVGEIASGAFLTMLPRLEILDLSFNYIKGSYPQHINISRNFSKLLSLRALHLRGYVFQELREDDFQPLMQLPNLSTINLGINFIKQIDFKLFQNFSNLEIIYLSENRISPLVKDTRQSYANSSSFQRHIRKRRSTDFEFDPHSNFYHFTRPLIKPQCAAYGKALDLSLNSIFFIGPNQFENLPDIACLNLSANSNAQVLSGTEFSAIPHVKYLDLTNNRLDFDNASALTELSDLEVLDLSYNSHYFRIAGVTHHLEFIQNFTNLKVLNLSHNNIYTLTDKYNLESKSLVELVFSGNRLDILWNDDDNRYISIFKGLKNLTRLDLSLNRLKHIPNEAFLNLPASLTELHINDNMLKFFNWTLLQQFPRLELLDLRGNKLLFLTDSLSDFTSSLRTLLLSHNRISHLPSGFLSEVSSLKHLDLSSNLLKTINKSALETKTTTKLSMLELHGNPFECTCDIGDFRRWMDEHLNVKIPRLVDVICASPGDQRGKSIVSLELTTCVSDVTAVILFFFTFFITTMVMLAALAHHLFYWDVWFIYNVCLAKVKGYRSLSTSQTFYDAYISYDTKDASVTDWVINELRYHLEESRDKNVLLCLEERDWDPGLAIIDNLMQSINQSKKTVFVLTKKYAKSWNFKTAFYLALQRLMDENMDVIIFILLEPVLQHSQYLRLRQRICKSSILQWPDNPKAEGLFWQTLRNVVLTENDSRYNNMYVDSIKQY
Text: A stable HEK293-Blue-hTLR8 cell line was purchased from InvivoGen (Cat. #: hkb-htlr8, San Diego, California, USA). These cells were designed for studying the stimulation of human TLR8 by monitoring the activation of NF-κB. A SEAP (secreted embryonic alkaline phosphatase) reporter gene was placed under the control of the IFN-β minimal promoter fused to five NF-κB and AP-1-binding sites. The SEAP was induced by activating NF-κB and AP-1 via stimulating HEK-Blue hTLR8 cells with TLR8 ligands. Therefore the reporter expression was regulated by the NF-κB promoter upon stimulation of human TLR8. The cell culture supernatant SEAP reporter activity was determined using QUANTI-Blue™ kit (Cat. #: rep-qbl, Invivogen, San Diego, Ca, USA) at a wavelength of 650 nm, a detection medium that turns purple to blue in the presence of alkaline phosphatase.
HEK293-Blue-hTLR8 cells were incubated at a density of 250,000-450,000 cells/mL in a volume of 180 μL in a 96-well plate in Dulbecco's Modified Eagle's medium (DMEM) containing 4.5 g/L glucose, 100 U/mL penicillin, 100 μg/mL streptomycin, 100 μg/mL Normocin, 1% (V/V) GlutaMAX™, 10% (v/v) heat-inactivated fetal bovine serum for 24 hours. Then the HEK293-Blue-hTLR8 cells were incubated with addition of 20 μL test compound in a serial dilution in the presence of final DMSO at 1% and perform incubation under 37° C. in a CO2 incubator for 20 hours. Then 20 μL of the supernatant from each well was incubated with 180 μL Quanti-blue substrate solution at 37° C. for 1 hours and the absorbance was read at 620-655 nm using a spectrophotometer. The signalling pathway that TLR8 activation leads to downstream NF-κB activation has been widely accepted, and therefore similar reporter assay was also widely used for evaluating TLR8 agonist.

human TLR7 = target: T2, human TLR7 (Homo sapiens, UniProt Q9NYK1); experiment: HEK293-Blue-hTLR7 cells assay (NF-κB SEAP reporter); type: cell-based; details: 20 hrs incubation, agonism
T2 construct: host or cells: HEK293-Blue-hTLR7 (HEK293)
T2 sequence (Q9NYK1 27-1049): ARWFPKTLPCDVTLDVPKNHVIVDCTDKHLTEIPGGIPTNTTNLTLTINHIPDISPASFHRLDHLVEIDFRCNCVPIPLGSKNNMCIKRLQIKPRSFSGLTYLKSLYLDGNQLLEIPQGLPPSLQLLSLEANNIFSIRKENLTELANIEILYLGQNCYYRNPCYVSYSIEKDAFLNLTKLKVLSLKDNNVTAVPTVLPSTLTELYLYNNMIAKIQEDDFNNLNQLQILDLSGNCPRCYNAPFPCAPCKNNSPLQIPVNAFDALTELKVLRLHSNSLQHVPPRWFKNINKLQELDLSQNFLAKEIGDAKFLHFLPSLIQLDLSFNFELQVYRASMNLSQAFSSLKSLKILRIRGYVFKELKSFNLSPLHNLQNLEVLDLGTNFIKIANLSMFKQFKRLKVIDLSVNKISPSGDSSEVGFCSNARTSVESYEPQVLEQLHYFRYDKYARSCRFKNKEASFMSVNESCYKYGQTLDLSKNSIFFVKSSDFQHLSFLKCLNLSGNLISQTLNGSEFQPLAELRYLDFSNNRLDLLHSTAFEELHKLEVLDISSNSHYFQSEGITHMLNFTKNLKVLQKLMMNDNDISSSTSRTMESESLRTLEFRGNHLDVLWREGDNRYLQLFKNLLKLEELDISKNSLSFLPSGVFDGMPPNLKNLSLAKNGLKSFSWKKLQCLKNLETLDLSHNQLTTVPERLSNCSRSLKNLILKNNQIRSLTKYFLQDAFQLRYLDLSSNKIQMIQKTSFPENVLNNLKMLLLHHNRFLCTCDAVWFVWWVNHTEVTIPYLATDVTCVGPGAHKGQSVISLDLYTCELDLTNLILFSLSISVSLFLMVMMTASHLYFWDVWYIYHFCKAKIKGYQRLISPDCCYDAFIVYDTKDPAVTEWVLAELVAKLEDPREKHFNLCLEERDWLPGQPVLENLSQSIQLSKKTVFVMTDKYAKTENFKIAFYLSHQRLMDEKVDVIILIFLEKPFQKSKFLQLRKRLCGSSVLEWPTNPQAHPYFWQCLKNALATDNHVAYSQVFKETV
Text: A stable HEK293-Blue-hTLR7 cell line was purchased from InvivoGen (Cat. #: hkb-htlr7, San Diego, California, USA). These cells were designed for studying the stimulation of human TLR7 by monitoring the activation of NF-κB. A SEAP (secreted embryonic alkaline phosphatase) reporter gene was placed under the control of the IFN-β minimal promoter fused to five NF-κB and AP-1-binding sites. The SEAP was induced by activating NF-κB and AP-1 via stimulating HEK-Blue hTLR7 cells with TLR7 ligands. Therefore the reporter expression was regulated by the NF-κB promoter upon stimulation of human TLR7 for 20 hrs. The cell culture supernatant SEAP reporter activity was determined using QUANTI-Blue™ kit (Cat. #: rep-qbl, Invivogen, San Diego, Ca, USA) at a wavelength of 650 nm, a detection medium that turns purple or blue in the presence of alkaline phosphatase.
HEK293-Blue-hTLR7 cells were incubated at a density of 250,000˜450,000 cells/mL in a volume of 180 μL in a 96-well plate in Dulbecco's Modified Eagle's medium (DMEM) containing 4.5 g/L glucose, 100 U/mL penicillin, 100 μg/mL streptomycin, 100 μg/mL Normocin, 1% (V/V) GlutaMAX™, 10% (V/V) heat-inactivated fetal bovine serum for 24 hrs. Then the HEK293-Blue-hTLR-7 cells were incubated with addition of 20 μL test compound in a serial dilution in the presence of final DMSO at 1% and perform incubation under 37° C. in a CO2 incubator for 20 hrs. Then 20 μL of the supernatant from each well was incubated with 180 μL Quanti-blue substrate solution at 37° C. for 1 hours and the absorbance was read at 620-655 nm using a spectrophotometer. The signalling pathway that TLR7 activation leads to downstream NF-κB activation has been widely accepted, and therefore similar reporter assay was also widely used for evaluating TLR7 agonist (Tsuneyasu Kaisho and Takashi Tanaka, Trends in Immunology, Volume 29, Issue 7, July 2008, […]; Hiroaki Hemmi et al, Nature Immunology 3, 196-200 (2002)).

Compound | EC50 (human TLR8) [nM] | EC50 (human TLR7) [nM]
CCCCc1nc2c(N)nc(C)c(Sc3ccc(CN(C)C)cc3O)c2[nH]1 [Example 21, 2-[(4-amino-2-butyl-6-methyl-1H-imidazo[4,5-c]pyridin-7-yl)sulfanyl]-5-[(dimethylamino)methyl]phenol] | 43 | 14
CCOCc1nc2c(N)nc(C)c(Sc3ccc(CN(C)C)cc3)c2[nH]1 [Example 1, 7-[4-[(dimethylamino)methyl]phenyl]sulfanyl-2-(ethoxymethyl)-6-methyl-1H-imidazo[4,5-c]pyridin-4-amine] | 14 | 27
CCOCc1nc2c(N)nc(C)c(SCCc3ccc(CN(C)C)cc3)c2[nH]1 [Example 10, 7-[2-[4-[(dimethylamino)methyl]phenyl]ethylsulfanyl]-2-(ethoxymethyl)-6-methyl-1H-imidazo[4,5-c]pyridin-4-amine] | 10 | 8
CCOCc1nc2c(N)nc(C)c(Sc3ccc(CN(C)C)c(OC)c3)c2[nH]1 [Example 9, 7-[4-[(dimethylamino)methyl]-3-methoxy-phenyl]sulfanyl-2-(ethoxymethyl)-6-methyl-1H-imidazo[4,5-c]pyridin-4-amine] | 3 | 30
CCOCc1nc2c(N)nc(C)c(Sc3ccc(CN(C)C)c(O)c3)c2n1C [Example 12, 5-[4-amino-2-(ethoxymethyl)-1,6-dimethyl-imidazo[4,5-c]pyridin-7-yl]sulfanyl-2-[(dimethylamino)methyl]phenol] | 3 | 10
CCOCc1nc2c(N)nc(C)c(Sc3ccc(NCCN(C)C)nc3)c2[nH]1 [Example 30, N-[5-[[4-amino-2-(ethoxymethyl)-6-methyl-1H-imidazo[4,5-c]pyridin-7-yl]sulfanyl]-2-pyridyl]-N′,N′-dimethyl-ethane-1,2-diamine] | 11 | 13
CCCCc1nc2c(N)nc(C)c(Sc3ccc(CN(C)C)cc3)c2n1CC(C)(C)O [Example 2, 1-[4-amino-2-butyl-7-[4-[(dimethylamino)methyl]phenyl]sulfanyl-6-methyl-imidazo[4,5-c]pyridin-1-yl]-2-methyl-propan-2-ol] | 28 | 35

Results, then the compound that gave them:

EC50 (human TLR8) [nM] | EC50 (human TLR7) [nM] | Compound
26 | 27 | CCOCc1nc2c(N)nc(C)c(Sc3ccc(CN(C)C)cc3O)c2[nH]1 [Example 8, 2-[[4-amino-2-(ethoxymethyl)-6-methyl-1H-imidazo[4,5-c]pyridin-7-yl]sulfanyl]-5-[(dimethylamino)methyl]phenol]
43 | 48 | CCOCc1nc2c(N)nc(C)c(Sc3ccc(CN(C)C)c4cn[nH]c34)c2[nH]1 [Example 19, 7-[[4-[(dimethylamino)methyl]-1H-indazol-7-yl]sulfanyl]-2-(ethoxymethyl)-6-methyl-1H-imidazo[4,5-c]pyridin-4-amine]
40 | 22 | CCOCc1nc2c(N)nc(C)c(Sc3ccc(CN(C)C)cc3N)c2[nH]1 [Example 20, 7-[2-amino-4-[(dimethylamino)methyl]phenyl]sulfanyl-2-(ethoxymethyl)-6-methyl-LH-imidazo[4,5-c]pyridin-4-amine]
56 | 22 | CCOCc1nc2c(N)nc(C)c(Sc3ccc(C(C)N(C)C)cc3O)c2[nH]1 (centres unmarked) [Example 24, 2-[[4-amino-2-(ethoxymethyl)-6-methyl-1H-imidazo[4,5-c]pyridin-7-yl]sulfanyl]-5-[1-(dimethylamino)ethyl]phenol]
54 | 21 | CCOCc1nc2c(N)nc(C)c(Sc3cc4c(cc3O)CN(C)CC4)c2[nH]1 [Example 32, 6-[[4-amino-2-(ethoxymethyl)-6-methyl-1H-imidazo[4,5-c]pyridin-7-yl]sulfanyl]-2-methyl-3,4-dihydro-1H-isoquinolin-7-ol]
52 | 39 | CCOCc1nc2c(N)nc(C)c(Sc3ccc(CN4CCN(C)CC4)cc3N)c2[nH]1 [Example 27, 7-[2-amino-4-[(4-methylpiperazin-1-yl)methyl]phenyl]sulfanyl-2-(ethoxymethyl)-6-methyl-1H-imidazo[4,5-c]pyridin-4-amine]
